According to patent US20180327367A1, “MACROCYCLIC BROAD SPECTRUM ANTIBIOTICS” (priority 2015, published 2018):
Values after ≈ are worked out from the molar mass of the structure shown. Like-named read-outs stand apart in the source and are kept apart here.

Columns and labels:
[1] = system: Methicillin Resistant Staphylococcus aureus strain USA 300, NRS384; experiment: Minimum inhibitory concentration, broth micro-dilution (CLSI), S. aureus; type: cell-based; settings: Staphylococcus aureus, MRSA / NRS 384 / USA300, 22 h, 35° C., 22 hours
Method in brief: (§1)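 Ten-point 2-fold series began at 4 μg/mL in protocol 2 and 0.5 μg/mL in protocol 3, in cation-adjusted MHB plus 0.002% Tween-80. Bacteria added to OD600 0.0005 final and incubated at 35° C for 22 hours per CLSI microdilution.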

[2] = system: Escherichia coli MC4100 harboring the IMP4213 (E. coli IMP); experiment: microbe, parasite or virus in culture; type: cell-based; settings: Escherichia coli, 22 h, read-out: MIC (μg/mL) E. coli IMP, E. coli MC4100 IMP4213, increased outer-membrane permeability; 35° C., 22 hours
Method in brief: as §1

[3] = system: Escherichia coli ATCC 25922; experiment: Minimum inhibitory concentration, broth micro-dilution (CLSI), E. coli; type: cell-based; settings: Escherichia coli, ATCC25922, 22 h, 35° C., 22 hours
[4] = molecular target: T1, SpsB (Staphylococcus aureus signal peptidase) (Staphylococcus aureus, UniProt P0A070); experiment: cell-based; type: biochemical; settings: fluorogenic peptide substrate, kinetic read 30 min
T1 construct: This assay uses a suspension of Staphylococcus aureus cells as a source of SpsB instead of recombinant SpsB protein; endogenous in cells; host or cells: S. aureus, USA300 background, overexpressing SpsB (whole-cell suspension from frozen pellets)
T1 sequence (P0A070 whole entry): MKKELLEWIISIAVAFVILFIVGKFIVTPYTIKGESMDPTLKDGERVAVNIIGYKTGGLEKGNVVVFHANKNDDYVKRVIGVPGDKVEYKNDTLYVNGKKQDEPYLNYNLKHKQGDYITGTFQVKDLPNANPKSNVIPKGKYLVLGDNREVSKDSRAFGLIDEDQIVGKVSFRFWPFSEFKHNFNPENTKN
Method in brief: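 Cleavage of an internally quenched (Dabcyl)βAla-KPAKAAE(Edans) peptide, added as 20 μM solution mixed 1:1 with cells, was followed for 30 min at 340/490 nm. SpsB came from a suspension of SpsB-overexpressing USA300 S. aureus in Tween-80-containing PBS buffer. Slopes plotted against 3-fold compound dilutions gave IC50.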

[5] = MRSA USA 300 NRS384, read-out: MIC (μg/mL) S. aureus
[6] = E. coli ATCC 25922, read-out: MIC (μg/mL) E. coli
[7] = SpsB IC50, whole-cell S. aureus (USA300 background, overexpressing SpsB) as SpsB source
[8] = read-out: MIC (μg/mL) S. aureus, MRSA USA 300 NRS384
[9] = read-out: MIC (μg/mL) E. coli, E. coli ATCC 25922

| SMILES | MIC [1, 5] [µg/mL] | MIC [2] [µg/mL] | MIC [3, 6] [µg/mL] | IC50 [4, 7] [nM] | MIC [1, 8] [µg/mL] | MIC [3, 9] [µg/mL] | IC50 ([4]; read-out: SpsB IC50, whole-cell S. aureus (USA300 background, overexpressing SpsB) as SpsB source) [nM] |
| --- | --- | --- | --- | --- | --- | --- | --- |
| CCCCc1ccc(C(=O)N[C@@H](CCN)C(=O)N(C)[C@@H]2C(=O)N[C@@H](C)C(=O)N[C@H](C(=O)NCC#N)Cc3ccc(OCCN)c(c3)-c3cc2ccc3OCCN)cn1 [Compound 227] | 1.5 (≈ 1.88 µM) | 0.38 (≈ 0.476 µM) | 16 (≈ 20 µM) | 5.5 |  |  |  |
| Cc1nc(-c2ccc(C(C)C)cc2)ncc1C(=O)N[C@@H](CCN)C(=O)N(C)[C@@H]1C(=O)N[C@@H](C)C(=O)N[C@H](C(=O)NCC#N)Cc2ccc(OCCN)c(c2)-c2cc1ccc2OCCN [Compound 160] | 0.047 (≈ 0.0537 µM) | 0.0039 (≈ 0.00445 µM) | 0.13 (≈ 0.148 µM) | 0.66 |  |  |  |
| CCCCCCc1ccc(C(=O)N[C@@H](CC(N)=O)C(=O)N(C)[C@@H]2C(=O)N[C@@H](C)C(=O)N[C@H](C(=O)NCC#N)Cc3ccc(OCCN)c(c3)-c3cc2ccc3OCCN)c(C)c1 [Compound 237] | 0.13 (≈ 0.152 µM) | 0.094 (≈ 0.11 µM) | 16 (≈ 18.7 µM) | 1.1 |  |  |  |
| CCCCCCCCCC(=O)N[C@@H](C(=O)N[C@@H](CCN)C(=O)N(C)[C@@H]1C(=O)N[C@@H](C)C(=O)N[C@H](C(=O)NCC#N)Cc2ccc(OCCN)c(c2)-c2cc1ccc2OCCN)C(C)O (single isomer, unassigned) [Compound 357-P2] |  | 0.094 (≈ 0.105 µM) |  | 1.1 | 0.094 (≈ 0.105 µM) | 12 (≈ 13.4 µM) |  |
| CCCCCCCCCCCCCC(=O)N(C)[C@@H]1C(=O)N[C@@H](C)C(=O)N[C@H](C(=O)NCC#N)Cc2ccc(OCCN(C)C)c(c2)-c2cc1ccc2OCCN(C)C [Compound 460] | 2 (≈ 2.49 µM) | 1.5 (≈ 1.87 µM) | 16 (≈ 19.9 µM) | 14 |  |  |  |
| CCCCc1cc(C)c(C(=O)N[C@@H](CCCN)C(=O)N(C)[C@@H]2C(=O)N[C@@H](C)C(=O)N[C@H](C(=O)NCC#N)Cc3ccc(OCCN)c(c3)-c3cc2ccc3OCCN)c(C)c1 [Compound 230] | 0.38 (≈ 0.452 µM) | 0.031 (≈ 0.0369 µM) | 4 (≈ 4.76 µM) | 1.3 |  |  |  |
| CCCCc1ccc(-c2ccc(C(=O)N[C@@H](CN)C(=O)N(C)[C@@H]3C(=O)N[C@@H](C)C(=O)N[C@H](C(=O)NCC#N)Cc4ccc(OCCO)c(c4)-c4cc3ccc4OCCN)cc2)cc1 [Compound 321] |  | 0.016 (≈ 0.0186 µM) |  | 1.8 | 0.38 (≈ 0.441 µM) | 1 (≈ 1.16 µM) |  |
| C[C@@H]1NC(=O)[C@@H](N(C)C(=O)[C@H](CO)NC(=O)c2ccc(-c3ccc(Cl)cc3)nc2)c2ccc(OCCN)c(c2)-c2cc(ccc2OCCN)C[C@@H](C(=O)NCC#N)NC1=O [Compound 250] |  | 0.25 (≈ 0.297 µM) |  | 7 | 1 (≈ 1.19 µM) | 64 (≈ 76.2 µM) |  |
| CCCCCCCCCC(=O)N[C@@H](CCO)C(=O)N[C@@H](CCN)C(=O)N(C)[C@@H]1C(=O)N[C@@H](C)C(=O)N[C@H](C(=O)NCC#N)Cc2ccc(OCCN)c(c2)-c2cc1ccc2OCCN [Compound 378] |  | 0.25 (≈ 0.28 µM) |  | 0.87 | 0.13 (≈ 0.146 µM) | 24 (≈ 26.9 µM) |  |
| CCCCCCCc1ccc(C(=O)N[C@@H](CCN)C(=O)N(C)[C@@H]2C(=O)N[C@@H](C)C(=O)N[C@H](C(=O)NCC#N)Cc3ccc(OCCN)c(c3)-c3cc2ccc3OCCN)c(C(F)(F)F)c1 [Compound 191] | 0.031 (≈ 0.0341 µM) | 0.016 (≈ 0.0176 µM) | 0.75 (≈ 0.826 µM) | 0.62 |  |  |  |
| C[C@@H]1NC(=O)[C@@H](N(C)C(=O)[C@H](CO)NC(=O)c2cnc(-c3ccc(Cl)cc3)nc2)c2ccc(OCCN)c(c2)-c2cc(ccc2OCCN)C[C@@H](C(=O)NCC#N)NC1=O [Compound 234] |  | 0.25 (≈ 0.297 µM) |  | 3.9 | 1 (≈ 1.19 µM) | 32 (≈ 38 µM) |  |
| CCCCc1ccc(-c2ccc(C(=O)N[C@@H](CCCCN)C(=O)N(C)[C@@H]3C(=O)N[C@@H](C)C(=O)N[C@H](C(=O)N[C@@H](C)C#N)Cc4ccc(OCCN)c(c4)-c4cc3ccc4OCCN)cc2)cc1 [Compound 332] | 0.13 (≈ 0.142 µM) | < 0.063 | 3 (≈ 3.27 µM) | 0.56 |  |  |  |
| Cc1cc(C(C)(C)C)ccc1C(=O)N[C@@H](CCN)C(=O)N(C)[C@@H]1C(=O)N[C@@H](C)C(=O)N[C@H](C(=O)NCC#N)Cc2ccc(OCCN)c(c2)-c2cc1ccc2OCCN [Compound 266] | 0.5 (≈ 0.616 µM) | 0.083 (≈ 0.102 µM) | 3.5 (≈ 4.31 µM) | 2.1 |  |  |  |
| CCCCCCCCc1ccc(C(=O)N[C@@H](CCN)C(=O)N(C)[C@@H]2C(=O)N[C@@H](C)C(=O)N[C@H](C(=O)NCC#N)Cc3ccc(OCCN)c(c3)-c3cc2ccc3OCCN)c(O)c1 [Compound 193] | 0.063 (≈ 0.0724 µM) | 0.047 (≈ 0.054 µM) | 0.5 (≈ 0.575 µM) | 0.93 |  |  |  |
| C[C@@H]1NC(=O)[C@@H](N(C)C(=O)[C@H](CCN)NC(=O)c2ccc(C#Cc3ccccc3)cc2Cl)c2ccc(OCCN)c(c2)-c2cc(ccc2OCCN)C[C@@H](C(=O)NCC#N)NC1=O [Compound 424] |  | 0.016 (≈ 0.0183 µM) |  | 0.75 | 0.063 (≈ 0.0719 µM) | 0.56 (≈ 0.639 µM) |  |
| CCCCCCCCCCCC(=O)N[C@@H](CC#N)C(=O)N(C)[C@@H]1C(=O)N[C@@H](C)C(=O)N[C@H](C(=O)NCC#N)Cc2ccc(OCCN)c(c2)-c2cc1ccc2OCCN [Compound 453] |  | 0.13 (≈ 0.159 µM) |  | 2.3 | 0.13 (≈ 0.159 µM) | 16 (≈ 19.6 µM) |  |
| Cc1cc(OCCC(C)(C)C)ccc1C(=O)N[C@@H](CCN)C(=O)N(C)[C@@H]1C(=O)N[C@@H](C)C(=O)N[C@H](C(=O)NCC#N)Cc2ccc(OCCN)c(c2)-c2cc1ccc2OCCN [Compound 277] | 0.063 (≈ 0.0736 µM) | 0.012 (≈ 0.014 µM) | 1 (≈ 1.17 µM) | 1.1 |  |  |  |
| CCCCCc1ccc(-c2ncc(C(=O)N[C@@H](CCN)C(=O)N(C)[C@@H]3C(=O)N[C@@H](C)C(=O)N[C@H](C(=O)NCC#N)Cc4ccc(OCCN)c(c4)-c4cc3ccc4OCCN)c(C)n2)cc1 [Compound 162] | 0.023 (≈ 0.0254 µM) | 0.0025 (≈ 0.00277 µM) | 0.063 (≈ 0.0697 µM) | 0.72 |  |  |  |
| CCCCCCc1ccc(C(=O)N[C@@H](CCN)C(=O)N(C)[C@@H]2C(=O)N[C@@H](C)C(=O)N[C@H](C(=O)NCC#N)Cc3ccc(OCCN)c(c3)-c3cc2ccc3OCCN)cc1 [Compound 195] | 0.063 (≈ 0.0763 µM) | 0.0078 (≈ 0.00944 µM) | 0.5 (≈ 0.605 µM) | 1.4 |  |  |  |
| CCCCC1CCC(C(=O)N[C@@H](CCN)C(=O)N(C)[C@@H]2C(=O)N[C@@H](C)C(=O)N[C@H](C(=O)NCC#N)Cc3ccc(OCCN)c(c3)-c3cc2ccc3OCCN)CC1 (some centres unmarked) [Compound 123] | 0.19 (≈ 0.236 µM) | 0.0078 (≈ 0.0097 µM) | 0.5 (≈ 0.622 µM) |  |  |  | 1.2 |
| CCCCCCCCc1ccc(C(=O)N[C@@H](CCN)C(=O)N(C)[C@@H]2C(=O)N[C@@H](C)C(=O)N[C@H](C(=O)NCC#N)Cc3ccc(OCCN)c(c3)-c3cc2ccc3OCCN)c(C(F)F)c1 [Compound 221] | 0.063 (≈ 0.0697 µM) | 0.023 (≈ 0.0254 µM) | 0.19 (≈ 0.21 µM) | 1.3 |  |  |  |
| CCCCCCCCCC(=O)N[C@@H](CCSC)C(=O)N(C)[C@@H]1C(=O)N[C@@H](C)C(=O)N[C@H](C(=O)NCC#N)Cc2ccc(OCCN)c(c2)-c2cc1ccc2OCCN [Compound 254] | 0.5 (≈ 0.607 µM) | 0.5 (≈ 0.607 µM) | 48 (≈ 58.3 µM) | 1.6 |  |  |  |
| C[C@@H]1NC(=O)[C@@H](N(C)C(=O)[C@H](CCN)NC(=O)c2ccc(-c3ccc4c(c3)CCCC4)cc2)c2ccc(OCCN)c(c2)-c2cc(ccc2OCCN)C[C@@H](C(=O)NCC#N)NC1=O [Compound 138] |  | 0.055 (≈ 0.0631 µM) |  | 0.93 | 0.063 (≈ 0.0722 µM) | 0.25 (≈ 0.287 µM) |  |
